Our source for the Activity and inhibition in vivo values is ChEMBL document CHEMBL3580594, “Synthesis and biological evaluation of 4-substituted fluoronucleoside analogs for the treatment of hepatitis B virus infection” (J Med Chem, 2015).

Series [1] concerns Mus musculus. The series can be described thus: Acute toxicity in KM mouse assessed as morbidity at 3 g/kg, iv suspended in 0.5% CMC/Na solution after 14 days. As to conditions: in vivo, 3000 mg/kg, 336 h. It is filed as organism-based.
Series [2] concerns Mus musculus. The series can be described thus: Toxicity in KM mouse assessed as micronucleus frequency in bone marrow polychromatic erythrocyte at 5 mg/kg, po single dose after 48 hrs (reference value: 1.20 +/- 0.45 %). As to conditions: in vivo. The class given is organism-based.
The test system of a further series is Duck hepatitis B virus. The series can be described thus: Antiviral activity against duck Hepatitis B virus infected in duck assessed as inhibition of viral DNA replication in serum at 0.2 mg/kg/day, po treatment initiated at day 5 after infection relative to control. It is filed as functional. The following applies: 120 h.

Turning to `[N-]=[N+]=N[C@]1(CO)O[C@@H](n2ccc(NC3CC3)nc2=O)[C@@H](F)[C@@H]1O`, the Activity result in the series on Mus musculus [1] is “Non-toxic”; with Mus musculus [2], 1.2%. For the same compound, in the series with Duck hepatitis B virus, the inhibition in vivo (commonly the share of the control response that was lost under treatment) at 0.2 mg/kg/day worked out at 62.5%.
